# Experimental data: paper PMC6225228, “Design, Synthesis and Evaluation of N-pyrazinylbenzamides as Potential Antimycobacterial Agents” (Molecules : A Journal of Synthetic Chemistry and Natural …, 2018)
# Where two headings read alike, the source gives them in different places.
# Experiments:
# [1] = tested on: Trichophyton interdigitale 445; assay: Antifungal microdilution broth, TI; format: cell-based; conditions: read-out: MIC TI
# Candida tropicalis 156 = assay: Antifungal microdilution broth, CT; format: cell-based; conditions: read-out: MIC CT
# [2] = tested on: Candida albicans ATCC 44859; assay: Antifungal microdilution broth, CA; format: cell-based; conditions: Candida albicans, read-out: MIC CA
# [3] = tested on: Aspergillus fumigatus 231; assay: Antifungal microdilution broth, AF; format: cell-based; conditions: read-out: MIC AF
# [4] = tested on: Enterococcus sp. J 14365/08; assay: Antibacterial microdilution broth, EF; format: cell-based; conditions: Enterococcus, read-out: MIC EF
# [5] = tested on: Pseudomonas aeruginosa CCM 1961; assay: Antibacterial microdilution broth, PA; format: cell-based; conditions: Pseudomonas aeruginosa, read-out: MIC PA
# Candida glabrata 20/I = assay: Antifungal microdilution broth, CG; format: cell-based; conditions: Nakaseomyces glabratus, 20/I, read-out: MIC CG
# [6] = tested on: Lichtheimia corymbifera 272; assay: Antifungal microdilution broth, LC; format: cell-based; conditions: read-out: MIC LC
# [7] = tested on: M. kansasii CNCTC My 235/80 (ATCC 12478); assay: Antimycobacterial microdilution MABA, M. kansasii; format: cell-based, Mycobacterium kansasii; conditions: for MIC: Mycobacterium kansasii
# [8] = tested on: M. avium ssp. avium CNCTC My 80/72 (ATCC 15769); assay: Antimycobacterial microdilution MABA, M. avium; format: cell-based, Mycobacterium avium; conditions: for MIC: Mycobacterium avium
# Candida krusei E28 = assay: Antifungal microdilution broth, CK; format: cell-based; conditions: Pichia kudriavzevii, read-out: MIC CK
# [9] = tested on: Mycobacterium smegmatis CCM 4622 (ATCC 607); assay: Antimycobacterial microdilution, M. smegmatis; format: cell-based; conditions: Mycolicibacterium smegmatis, read-out: M. smeg. ATCC 607 MIC
# [10] = tested on: Escherichia coli CCM 4517; assay: Antibacterial microdilution broth, EC; format: cell-based; conditions: Escherichia coli, read-out: MIC EC
# [11] = tested on: Staphylococcus aureus CCM 4516/08; assay: Antibacterial microdilution broth, SA; format: cell-based
# [12] = tested on: Staphylococcus aureus H 5996/08 methicillin resistant; assay: microbe, parasite or virus in culture; format: cell-based; conditions: for MIC: Staphylococcus aureus, MRSA, read-out: MIC MRSA
# [13] = tested on: Staphylococcus epidermidis H 6966/08; assay: Antibacterial microdilution broth, SE; format: cell-based; conditions: read-out: MIC SE
# [14] = tested on: Mycobacterium tuberculosis H37Rv CNCTC My 331/88 (ATCC 27294); assay: Antimycobacterial microdilution MABA, M. tuberculosis; format: cell-based; conditions: for MIC: Mycobacterium tuberculosis
# Trichosporon asahii 1188 = assay: Antifungal microdilution broth, TA; format: cell-based; conditions: read-out: MIC TA
# [15] = Trichophyton interdigitale, 445, 72 h
# [16] = Trichophyton interdigitale, 445, 120 h
# [17] = Aspergillus fumigatus, 231, 24 h
# [18] = Aspergillus fumigatus, 231, 48 h
# [19] = Lichtheimia corymbifera, 272, 24 h
# [20] = Lichtheimia corymbifera, 272, 48 h
# [21] = Middlebrook 7H9 with OADC, pH 6.6, MABA
# [22] = ATCC12478, pH 6.6, read-out: M. kans. ATCC 12478 MIC, Middlebrook 7H9 with OADC, pH 6.6, MABA
# [23] = ATCC15769, pH 6.6, read-out: M. avium ATCC 15769 MIC
# [24] = Staphylococcus aureus, CCM4516, 24 h, read-out: MIC SA, 24 h
# [25] = Staphylococcus aureus, CCM4516, 48 h, read-out: MIC SA, 48 h
# [26] = Staphylococcus epidermidis, H6966/08, 24 h
# [27] = Staphylococcus epidermidis, H6966/08, 48 h
# [28] = read-out: Mtb H37Rv ATCC 27294 MIC, Middlebrook 7H9 with OADC growth supplement, pH = 6.6, MABA
# [29] = Trichosporon asahii, 1188, 24 h
# [30] = Trichosporon asahii, 1188, 48 h
# [31] = Middlebrook 7H9 with OADC growth supplement, pH = 6.6, MABA
# [32] = ATCC12478, Middlebrook 7H9 with OADC, pH 6.6, MABA, read-out: M. kans. ATCC 12478 MIC
# [33] = ATCC15769, Middlebrook 7H9 with OADC, pH 6.6, MABA, read-out: M. avium ATCC 15769 MIC
# [34] = Middlebrook 7H9 with OADC, resazurin
# [35] = Middlebrook 7H9 with OADC growth supplement, pH = 6.6, MABA, read-out: Mtb H37Rv ATCC 27294 MIC
compound,measurement,setting,value
COc1ccc(C(=O)Nc2cnccn2)cc1 [Compound 1g],MIC,[1]; [15],> 500 µM
same,MIC,[1]; [16],> 500 µM
same,MIC,"Candida tropicalis 156; Candida tropicalis, 156, 24 h",> 500 µM
same,MIC,"Candida tropicalis 156; Candida tropicalis, 156, 48 h",> 500 µM
same,MIC,"[2]; ATCC44859, 24 h",> 500 µM
same,MIC,"[2]; ATCC44859, 48 h",> 500 µM
same,MIC,[3]; [17],> 500 µM
same,MIC,[3]; [18],> 500 µM
same,MIC,"[4]; SP.J14365/08, 24 h",> 500 µM
same,MIC,"[4]; SP.J14365/08, 48 h",> 500 µM
same,MIC,"[5]; CCM1961, 72 h",> 500 µM
same,MIC,"[5]; CCM1961, 120 h",> 500 µM
same,MIC,Candida glabrata 20/I; 24 h,> 500 µM
same,MIC,Candida glabrata 20/I; 48 h,> 500 µM
same,MIC,[6]; [19],> 500 µM
same,MIC,[6]; [20],> 500 µM
same,M. kans. ATCC 12478 MIC,[7]; [21],>100 µg/mL
same,MIC,[7]; [22],> 100 µg/mL
same,M. avium ATCC 15769 MIC,[8]; [21],>100 µg/mL
same,MIC,[8]; [23],> 100 µg/mL
same,MIC,"Candida krusei E28; E28, 24 h",> 500 µM
same,MIC,"Candida krusei E28; E28, 48 h",> 500 µM
same,MIC,[9],≥ 500 µg/mL
same,MIC,"[10]; CCM4517, 24 h",> 500 µM
same,MIC,"[10]; CCM4517, 48 h",> 500 µM
same,melting point,,156 to 156.6 °C
same,MIC,[11]; [24],> 500 µM
same,MIC,[11]; [25],> 500 µM
same,MIC,[12]; 24 h,> 500 µM
same,MIC,[12]; 48 h,> 500 µM
same,MIC,[13]; [26],> 500 µM
same,MIC,[13]; [27],> 500 µM
same,MIC,[14]; [28],25 µg/mL
same,MIC,Trichosporon asahii 1188; [29],> 500 µM
same,MIC,Trichosporon asahii 1188; [30],> 500 µM
COc1ccccc1C(=O)Nc1cnc(Cl)cn1 [Compound 2e],MIC,[1]; [15],> 125 µM
same,MIC,[1]; [16],> 125 µM
same,MIC,"Candida tropicalis 156; Candida tropicalis, 156, 24 h",> 125 µM
same,MIC,"Candida tropicalis 156; Candida tropicalis, 156, 48 h",> 125 µM
same,MIC,"[2]; ATCC44859, 24 h",> 125 µM
same,MIC,"[2]; ATCC44859, 48 h",> 125 µM
same,MIC,[3]; [17],> 125 µM
same,MIC,[3]; [18],> 125 µM
same,MIC,"[4]; SP.J14365/08, 24 h",> 125 µM
same,MIC,"[4]; SP.J14365/08, 48 h",> 125 µM
same,MIC,"[5]; CCM1961, 72 h",> 125 µM
same,MIC,"[5]; CCM1961, 120 h",> 125 µM
same,MIC,Candida glabrata 20/I; 24 h,> 125 µM
same,MIC,Candida glabrata 20/I; 48 h,> 125 µM
same,MIC,[6]; [19],> 125 µM
same,MIC,[6]; [20],> 125 µM
same,MIC,[7]; [22],> 100 µg/mL
same,MIC,[8]; [23],> 100 µg/mL
same,MIC,"Candida krusei E28; E28, 24 h",> 125 µM
same,MIC,"Candida krusei E28; E28, 48 h",> 125 µM
same,MIC,[9],≥ 500 µg/mL
same,MIC,"[10]; CCM4517, 24 h",> 125 µM
same,MIC,"[10]; CCM4517, 48 h",> 125 µM
same,melting point,,141.2 to 142 °C
same,MIC,[11]; [24],> 125 µM
same,MIC,[11]; [25],> 125 µM
same,MIC,"[11]; Staphylococcus aureus, CCM4516, read-out: MIC against S. aureus, time not stated",> 125 µM
same,MIC,[12]; 24 h,> 125 µM
same,MIC,[12]; 48 h,> 125 µM
same,MIC,[13]; [26],> 125 µM
same,MIC,[13]; [27],> 125 µM
same,MIC,[14]; [28],> 100 µg/mL
same,MIC,Trichosporon asahii 1188; [29],> 125 µM
same,MIC,Trichosporon asahii 1188; [30],> 125 µM
CC(=O)Oc1cccc(C(=O)Nc2cnc(Cl)cn2)c1 [Compound 2c-Ac],MIC,[1]; [15],> 125 µM
same,MIC,[1]; [16],> 125 µM
same,MIC,"Candida tropicalis 156; Candida tropicalis, 156, 24 h",> 125 µM
same,MIC,"Candida tropicalis 156; Candida tropicalis, 156, 48 h",> 125 µM
same,MIC,"[2]; ATCC44859, 24 h",> 125 µM
same,MIC,"[2]; ATCC44859, 48 h",> 125 µM
same,MIC,[3]; [17],> 125 µM
same,MIC,[3]; [18],> 125 µM
same,MIC,"[4]; SP.J14365/08, 24 h",> 125 µM
same,MIC,"[4]; SP.J14365/08, 48 h",> 125 µM
same,MIC,"[5]; CCM1961, 72 h",> 125 µM
same,MIC,"[5]; CCM1961, 120 h",> 125 µM
same,MIC,Candida glabrata 20/I; 24 h,> 125 µM
same,MIC,Candida glabrata 20/I; 48 h,> 125 µM
same,MIC,[6]; [19],> 125 µM
same,MIC,[6]; [20],> 125 µM
same,M. kans. ATCC 12478 MIC,[7]; [21],>100 µg/mL
same,MIC,[7]; [22],> 100 µg/mL
same,M. avium ATCC 15769 MIC,[8]; [21],>100 µg/mL
same,MIC,[8]; [23],> 100 µg/mL
same,MIC,"Candida krusei E28; E28, 24 h",> 125 µM
same,MIC,"Candida krusei E28; E28, 48 h",> 125 µM
same,MIC,[9],250 µg/mL
same,MIC,"[10]; CCM4517, 24 h",> 125 µM
same,MIC,"[10]; CCM4517, 48 h",> 125 µM
same,melting point,,184.1 to 184.6 °C
same,MIC,"[11]; 24 h, read-out: MIC SA",>125 µM
same,MIC,"[11]; 48 h, read-out: MIC SA",>125 µM
same,MIC,[11]; [24],> 125 µM
same,MIC,[11]; [25],> 125 µM
same,MIC MRSA,[12]; 24 h,>125 µM
same,MIC MRSA,[12]; 48 h,>125 µM
same,MIC,[12]; 24 h,> 125 µM
same,MIC,[12]; 48 h,> 125 µM
same,MIC,[13]; 24 h,>125 µM
same,MIC,[13]; 48 h,>125 µM
same,MIC,[13]; [26],> 125 µM
same,MIC,[13]; [27],> 125 µM
same,Mtb H37Rv ATCC 27294 MIC,[14]; [31],>100 µg/mL
same,MIC,[14]; [28],> 100 µg/mL
same,MIC,Trichosporon asahii 1188; [29],> 125 µM
same,MIC,Trichosporon asahii 1188; [30],> 125 µM
Cc1ccc(C(=O)Nc2cncc(Cl)n2)cc1 [Compound 3h],MIC,[7]; [32],> 100 µg/mL
same,MIC,[8]; [33],> 100 µg/mL
same,MIC,[9]; [34],≥ 500 µg/mL
same,melting point,,169.1 to 170 °C
same,Mtb H37Rv ATCC 27294 MIC,[14]; [31],>100 µg/mL
same,MIC,[14]; [35],> 100 µg/mL
O=C(Nc1cncc(Cl)n1)c1ccc(Cl)cc1 [Compound 3l],MIC,[7]; [32],> 100 µg/mL
same,MIC,[8]; [33],> 100 µg/mL
same,MIC,[9]; [34],≥ 500 µg/mL
same,melting point,,193.8 to 194.7 °C
same,Mtb H37Rv ATCC 27294 MIC,[14]; [31],>100 µg/mL
same,MIC,[14]; [35],> 100 µg/mL
O=C(Nc1cnc(Cl)cn1)c1cccc(C(F)(F)F)c1 [Compound 2n],M. kans. ATCC 12478 MIC,[7]; [21],>100 µg/mL
same,MIC,[7]; [32],> 100 µg/mL
same,M. avium ATCC 15769 MIC,[8]; [21],>100 µg/mL
same,MIC,[8]; [33],> 100 µg/mL
same,MIC,[9]; [34],≥ 500 µg/mL
same,melting point,,155.4 to 156.4 °C
same,MIC,[14]; [35],25 µg/mL
COc1ccc(C(=O)Nc2cncc(Cl)n2)cc1 [Compound 3g],MIC,[7]; [32],> 100 µg/mL
same,MIC,[8]; [33],> 100 µg/mL
same,MIC,[9]; [34],≥ 500 µg/mL
same,melting point,,196.9 to 198.8 °C
same,MIC,[14]; [35],> 100 µg/mL
